Our source for the Ki values is patent US20240400553A1, “AMINE BASED MATRIPTASE 2 INHIBITORS AND USES THEREOF” (Disc Medicine, Inc., priority 2023, published 2024).

For the first experiment, the target named is T1, Human Recombinant Matriptase 2 (Homo sapiens, UniProt Q8IU80).
T1 construct: made in house
T1 sequence (Q8IU80 1-811): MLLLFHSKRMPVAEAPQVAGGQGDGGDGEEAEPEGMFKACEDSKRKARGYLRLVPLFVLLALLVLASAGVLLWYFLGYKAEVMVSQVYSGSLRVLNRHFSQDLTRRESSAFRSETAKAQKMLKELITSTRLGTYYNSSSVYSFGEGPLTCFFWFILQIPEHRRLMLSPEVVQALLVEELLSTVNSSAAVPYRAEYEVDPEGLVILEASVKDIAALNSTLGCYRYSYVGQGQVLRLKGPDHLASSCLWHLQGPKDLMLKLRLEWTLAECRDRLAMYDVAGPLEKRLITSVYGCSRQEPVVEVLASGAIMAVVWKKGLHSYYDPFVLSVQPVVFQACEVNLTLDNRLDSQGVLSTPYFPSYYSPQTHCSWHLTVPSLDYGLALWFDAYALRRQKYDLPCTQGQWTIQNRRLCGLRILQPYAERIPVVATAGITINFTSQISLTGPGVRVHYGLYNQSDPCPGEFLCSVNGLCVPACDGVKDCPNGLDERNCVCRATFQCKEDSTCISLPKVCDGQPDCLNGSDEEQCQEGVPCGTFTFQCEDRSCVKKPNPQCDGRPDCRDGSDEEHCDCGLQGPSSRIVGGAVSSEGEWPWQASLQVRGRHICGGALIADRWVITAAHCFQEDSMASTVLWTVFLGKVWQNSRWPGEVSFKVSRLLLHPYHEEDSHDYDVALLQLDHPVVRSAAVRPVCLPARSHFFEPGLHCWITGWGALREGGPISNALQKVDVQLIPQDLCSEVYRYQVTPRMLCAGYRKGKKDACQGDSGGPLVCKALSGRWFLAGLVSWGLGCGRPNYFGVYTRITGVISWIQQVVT
The experiment is described as follows: Matriptase 2 inhibition, fluorescence based assay (Method I). The format is biochemical. The settings on record: Table A; Ki of Matriptase-2; read-out: Mat-2 Ki. How it is done: • Method I: Test compounds were evaluated for their potential to inhibit Human Recombinant Matriptase 2 (in-house) using fluorescence based assay. The concentration of Recombinant Matriptase 2 and the substrate used in the assay was: 3.5 nM (In-house Matriptase 2) and 62 μM (Boc-Gln-Ala-Arg-7-amido-4-methyl coumarin hydrobromide −Cat log: I-1550 from Bachem) respectively. The assay buffer used was 50 mM TRIS pH 7.5, 150 mM NaCl, 0.01% Gelatin TCL059 Himedia). The assay was performed using 384 well black flat bottom plate from grenier (Cat log: 781076) at 25° C. The enzyme and compound were preincubated for 30 mins, the plate was read at 60 mins after substrate addition at wavelength Ex: 360/Em: 480 nm. The final assay volume was 20 μl. A stock solution of compounds was initially prepared in DMSO and appropriate dilutions were made and IC50 was determined for all the compounds (final DMSO conc in the assay was 1%). All the measurements were carried out using the Spectramax M5, Molecular devices.
To determine Ki values, dose response curves were generated by plotting percentage inhibition as a function of inhibitor concentration and the data was fitted to sigmoidal non-linear regression equation (variable slope) using Graph Pad prism software V8.
As to `CN(CCOC(=O)c1cc2ccc(CN)nc2n1Cc1cc(NS(=O)(=O)Cc2ccccc2)cc2ccccc12)Cc1ccccc1` [Compound 134, 2-[benzyl(methyl)-amino]ethyl 6-(amino-methyl)-1-{[3-(phenyl-methanesulfonamido)-naphthalen-1-yl]methyl}-1H-pyrrolo[2,3-b]pyr-idine-2-carboxylate], the Ki lay within 0.1 to 0.5 µM.

`CC[C@@H](COC(=O)c1cc2ccc(CN)nc2n1Cc1cc(NS(=O)(=O)Cc2ccccc2)cc2ccccc12)N(C)C` (racemic) [Compound 54, rac-(2R)-2-(dimethyl-amino)butyl 6-(amino-methyl)-1-{[3-(phenyl-methanesulfonamido)-naphthalen-1-yl]methyl}-1H-pyrrolo[2,3-b]pyr-idine-2-carboxylate]: the Ki is not above 0.1 µM. Same read-out and setting: the value for `NCc1ccc2cc(C(=O)OCCn3cncn3)n(Cc3cc(NS(=O)(=O)Cc4ccccc4)cc4ccccc34)c2n1` [Compound 97] was 0.1 to 0.5 µM; that for `NCc1ccc2cc(C(=O)NCCN3CCOCC3)n(Cc3cc(NS(=O)(=O)Cc4ccsc4)cc4ccccc34)c2n1` [Compound 173, 6-(aminomethyl)-N-[2-(morpholin-4-yl)ethyl]-1-({3-[(thiophen-3-yl)-methanesulfonamido]-naphthalen-1-yl}meth-yl)-1H-pyrrolo[2,3-b]-pyridine-2-carboxamide] was not above 0.1 µM.

For `NCc1ccc2cc(C(=O)OCCN(Cc3ccccc3)CC3CC3)n(Cc3cc(NS(=O)(=O)Cc4ccccc4)cc4ccccc34)c2n1` [Compound 136, 2-[benzyl(cyclopropyl-methyl)amino]ethyl 6-(aminomethyl)-1-{[3-(phenylmethanesulfon-amido)naphthalen-1-yl]-methyl}-1H-pyrrolo[2,3-b]pyridine-2-carboxylate], the inhibition constant (Ki) lay within 0.5 to 3 µM.

Still in this experiment, the particulars now being: Table A; Ki of Matriptase-2 given as class symbols; read-out: Mat-2 Ki.
Consider `CN1CCC(COC(=O)c2cc3ccc(CN)cc3n2Cc2cc(NS(=O)(=O)Cc3ccsc3)cc3ccccc23)CC1` [Compound 374, (1-methylpiperidin-4-yl)-methyl 6-(aminomethyl)-1-({3-[(thiophen-3-yl)-methanesulfonamido]-naphthalen-1-yl}methyl)-1H-indole-2-carboxylate], for which the inhibition constant Ki was not above 0.1 µM. Take `Cc1cccc(C)c1CS(=O)(=O)Nc1cc(Cn2c(C(=O)OCCN(C)C)cc3ccc(CN)nc32)c2ccccc2c1` [Compound 201, 2-(dimethylamino)ethyl 6-(aminomethyl)-1-({3-[(2,6-dimethylphenyl)-methanesulfonamido]-naphthalen-1-yl}methyl)-1H-pyrrolo[2,3-b]pyr-idine-2-carboxylate]: the Ki lay in the range of 0.1 to 0.5 µM. Regarding `NCc1ccc2cc(C(=O)O)n(Cc3cc(NC(=O)N4CCC(C(F)(F)F)CC4)cc4ccccc34)c2n1` [Compound 298, 6-(aminomethyl)-1-[(3-{[4-(trifluoromethyl)-piperidine-1-carbonyl]-amino}naphthalen-1-yl)-methyl]-1H-pyrrolo[2,3-b]pyridine-2-carboxylic acid], the inhibition constant Ki is 0.5 to 3 µM.

Take `CCN(CC)CCS(=O)(=O)Nc1cc(Cn2c(C(=O)O)cc3ccc(CN)nc32)c2ccccc2c1` [Compound 265, 6-(aminomethyl)-1-({3-[2-(diethylamino)ethane-sulfonamido]naphthalen-1-yl}methyl)-1H-pyr-rolo[2,3-b]pyridine-2-carboxylic acid]: the Ki was 0.1 to 0.5 µM. Still for that read-out and setting: the value for `CC(=O)OC(C)OC(=O)c1cc2ccc(CN)nc2n1Cc1cc(NS(=O)(=O)CC[C@@H]2CCCN2)cc2ccccc12` (stereo partly drawn) [Compound 275, 1-[6-(aminomethyl)-1-[(3-{2-[(2S)-pyrrolidin-2-yl]ethanesulfonamido}naphthalen-1-yl)methyl]-1H-pyrrolo[2,3-b]pyr-idine-2-carbonyloxy]-ethyl acetate] was 0.5 to 3 µM; that for `COc1ccc2c(Cn3c(C(=O)O)cc4ccc(CN)nc43)cc(NS(=O)(=O)Cc3ccccc3)cc2c1` [Compound 361] was 0.1 to 0.5 µM.

Staying with this experiment, now noted: Table B; Human Recombinant Matriptase 2, 3.5 nM enzyme, 62 μM substrate, 30 mins preincubation; read-out: Mean Ki.
With `CB1C=Cc2c(Cn3c(C(=O)OCC4CCN(C)CC4)cc4ccc(CN)nc43)cc(NS(=O)(=O)Cc3ccccc3)cc2N1` [Compound 2.25], the inhibition constant (Ki) is not above 0.1 µM.

For orientation: Ki means the dissociation constant of the complex between target and ligand, obtained from inhibition or displacement.
